Experimental data: patent US10023922B2, “Reporter of genomic methylation and uses thereof” (Whitehead Institute for Biomedical Research, priority 2015, dated 2018)

Tested on: Gapdh and Dazl reporter constructs
Experiment: In vitro methylation of reporter plasmids, checked by bisulfite conversion, PCR amplification and sequencing
Assay type: biochemical
Details: FIGS. 2A and 2B
Description: Conversely, we were interested to assess whether a methylated and silent donor Snrpn promoter can be reactivated by means of demethylation acquired in vivo. For this we used the CpG methyltransferase M.SssI to in vitro methylate both Gapdh and Dazl reporter constructs.
Bisulfite conversion of DNA was established using the EpiTect Bisulfite Kit (Qiagen) following the manufacturer's instructions. The resulting modified DNA was amplified by first round of nested PCR, following a second round using loci specific PCR primers (see complete list of primers below). The first round of nested PCR was done as follows: 94° C. for 4 min; 55° C. for 2 min; 72° C. for 2 min; Repeat steps 1-3 1×; 94° C. for 1 min; 55° C. for 2 min; 72° C. for 2 min; Repeat steps 5-7 35×; 72° C. for 5 min; Hold 12° C. The second round of PCR was as followed: 95° C. for 4 min; 94° C. for 1 min; 55° C. for 2 min; 72° C. for 2 min; Repeat steps 2-4 35×; 72° C. for 5 min; Hold 12° C. The resulting amplified products were gel-purified, subcloned into A pCR2.1-TOPO-TA cloning vector (Life Technologies), and sequenced.

With “M.SssI: CpG methyltransferase used to in vitro methylate reporter constructs” the “methylation of CGI and Snrpn promoter regions of the treated plasmids” value was “complete hypermethylation”.
